In PubChem BioAssay AID1963983 (Molecular Pharmacology Branch, DTP, NCI, 2024):

Test system: 186277-243-T-J2-PDC multi-cell spheroid viability
Experiment: Anticancer human tumor 186277-243-T-J2-PDC patient-derived colon adenocarcinoma cell line growth inhibition [PI3K]
Conditions: for IC50: curve of first compound; for viability, T/C: stronger effect = lower value
How it was run: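 We assembled tumor spheroids that included a stromal compartment of HUVEC and MSCs, then exposed them to targeted agents alone and together with PI3K pathway inhibitors. Concentration series descended by half-log from clinically achievable Cmax levels. Viability served as the endpoint.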

[1] = second compound 0.0316 µM, first compound 0.0316 µM
[2] = second compound 0.0316 µM, first compound 0.1 µM
[3] = second compound 0.0316 µM, first compound 0.316 µM
[4] = second compound 0.0316 µM, first compound 1 µM
[5] = second compound 0.0316 µM, first compound 3.16 µM
[6] = second compound 0.0316 µM, first compound 10 µM
[7] = second compound 0.1 µM, first compound 0.0316 µM
[8] = second compound 0.1 µM, first compound 0.1 µM
[9] = second compound 0.1 µM, first compound 0.316 µM
[10] = second compound 0.1 µM, first compound 1 µM
[11] = second compound 0.1 µM, first compound 3.16 µM
[12] = second compound 0.1 µM, first compound 10 µM
[13] = second compound 0.316 µM, first compound 0.0316 µM
[14] = second compound 0.316 µM, first compound 0.1 µM
[15] = second compound 0.316 µM, first compound 0.316 µM
[16] = second compound 0.316 µM, first compound 1 µM
[17] = second compound 0.316 µM, first compound 3.16 µM
[18] = second compound 0.316 µM, first compound 10 µM
[19] = second compound 1 µM, first compound 0.0316 µM
[20] = second compound 1 µM, first compound 0.1 µM
[21] = second compound 1 µM, first compound 0.316 µM
[22] = second compound 1 µM, first compound 1 µM
[23] = second compound 1 µM, first compound 3.16 µM
[24] = second compound 1 µM, first compound 10 µM
[25] = second compound 3.16 µM, first compound 0.0316 µM
[26] = second compound 3.16 µM, first compound 0.1 µM
[27] = second compound 3.16 µM, first compound 0.316 µM
[28] = second compound 3.16 µM, first compound 1 µM
[29] = second compound 3.16 µM, first compound 3.16 µM
[30] = second compound 3.16 µM, first compound 10 µM
[31] = second compound 10 µM, first compound 0.0316 µM
[32] = second compound 10 µM, first compound 0.1 µM
[33] = second compound 10 µM, first compound 0.316 µM
[34] = second compound 10 µM, first compound 1 µM
[35] = second compound 10 µM, first compound 3.16 µM
[36] = second compound 10 µM, first compound 10 µM
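Further: spheroids exposed to compounds for seven days before viability reading.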
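Wherever viability, T/C is given: 100% = DMSO vehicle control viability.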

For C=CC(=O)N1CCN(c2nc(=O)n(-c3c(C)ccnc3C(C)C)c3nc(-c4c(O)cccc4F)c(F)cc23)C(C)C1 (centres undefined) + Cc1nc(NC(=O)N2CCCC2C(N)=O)sc1-c1ccnc(C(C)(C)C(F)(F)F)c1, the IC50 (second compound 0.0316 µM) was > 10 µM, the IC50 (second compound 0.1 µM) was > 10 µM and the IC50 (second compound 0.316 µM) was > 10 µM. For the same compound, the IC50 (second compound 1 µM) was > 10 µM, the IC50 (second compound 3.16 µM) was 0.605 µM and the IC50 (second compound 10 µM) was < 0.0316 µM. The viability, T/C [1] was 83.7%, the viability, T/C [2] was 108% and the viability, T/C [3] was 105%. It also gave a viability, T/C [4] of 88.1%, a viability, T/C [5] of 100% and a viability, T/C [6] of 94.8%. The viability, T/C [7] was 102%, the viability, T/C [8] was 99.2% and the viability, T/C [9] was 106%. It also gave a viability, T/C [10] of 95.6%, a viability, T/C [11] of 92% and a viability, T/C [12] of 103%. For the same compound, the viability, T/C [13] was 108%, the viability, T/C [14] was 107% and the viability, T/C [15] was 96.6%. It also gave a viability, T/C [16] of 104%, a viability, T/C [17] of 86.9% and a viability, T/C [18] of 85%. The viability, T/C [19] was 93.4%, the viability, T/C [20] was 102% and the viability, T/C [21] was 87.6%. For the same compound, the viability, T/C [22] was 94.5%, the viability, T/C [23] was 80% and the viability, T/C [24] was 57.5%. The viability, T/C [25] was 61.6%, the viability, T/C [26] was 51.9% and the viability, T/C [27] was 46.5%. For the same compound, the viability, T/C [28] was 52.7%, the viability, T/C [29] was 41.1% and the viability, T/C [30] was 26.3%. It also gave a viability, T/C [31] of 11.1%, a viability, T/C [32] of 12.8% and a viability, T/C [33] of 14.5%. It also gave a viability, T/C [34] of 9.26%, a viability, T/C [35] of 10.8% and a viability, T/C [36] of 13.2%.
With CNC(=O)c1ccc(N2C(=S)N(c3ccc(C#N)c(C(F)(F)F)c3)C(=O)C2(C)C)cc1F + CC(Nc1ncnc2nc[nH]c12)c1cc2cccc(Cl)c2c(=O)n1-c1ccccc1 the IC50 (second compound 0.0316 µM) was > 10 µM, the IC50 (second compound 0.1 µM) was > 10 µM and the IC50 (second compound 0.316 µM) was > 10 µM. For the same compound, the IC50 (second compound 1 µM) was > 10 µM, the IC50 (second compound 3.16 µM) was > 10 µM and the IC50 (second compound 10 µM) was > 10 µM. It also gave a viability, T/C [1] of 100%, a viability, T/C [2] of 117% and a viability, T/C [3] of 90.9%. It also gave a viability, T/C [4] of 90.1%, a viability, T/C [5] of 101% and a viability, T/C [6] of 92%. It also gave a viability, T/C [7] of 99.7%, a viability, T/C [8] of 107% and a viability, T/C [9] of 88.6%. It also gave a viability, T/C [10] of 115%, a viability, T/C [11] of 115% and a viability, T/C [12] of 99.8%. It also gave a viability, T/C [13] of 104%, a viability, T/C [14] of 119% and a viability, T/C [15] of 102%. For the same compound, the viability, T/C [16] was 104%, the viability, T/C [17] was 112% and the viability, T/C [18] was 113%. For the same compound, the viability, T/C [19] was 89.3%, the viability, T/C [20] was 112% and the viability, T/C [21] was 117%. It also gave a viability, T/C [22] of 116%, a viability, T/C [23] of 106% and a viability, T/C [24] of 103%. For the same compound, the viability, T/C [25] was 116%, the viability, T/C [26] was 128% and the viability, T/C [27] was 103%. The viability, T/C [28] was 106%, the viability, T/C [29] was 118% and the viability, T/C [30] was 92.9%. The viability, T/C [31] was 90.5%, the viability, T/C [32] was 102% and the viability, T/C [33] was 103%. For the same compound, the viability, T/C [34] was 96.6%, the viability, T/C [35] was 92.1% and the viability, T/C [36] was 89.4%.
